Experimental data reported in publication PMC6934184, “Selective DNA-PKcs inhibition extends the therapeutic index of localized radiotherapy and chemotherapy” (The Journal of Clinical Investigation, 2019).

Biological target: T1, TYK2 (Homo sapiens, UniProt P29597)
T1 construct: purchased Thermo Fisher Scientific (Life Technologies) SelectScreen
Assay: SelectScreen Z'LYTE
Format: biochemical
In short: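 Percent values come from Thermo SelectScreen profiling of NU5455, combining activity and binding assays. CSF1R was run in Z'LYTE format at Km app ATP, and CAMK1 in Adapta format with ATP listed at 10.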

T1 sequence (P29597 whole entry): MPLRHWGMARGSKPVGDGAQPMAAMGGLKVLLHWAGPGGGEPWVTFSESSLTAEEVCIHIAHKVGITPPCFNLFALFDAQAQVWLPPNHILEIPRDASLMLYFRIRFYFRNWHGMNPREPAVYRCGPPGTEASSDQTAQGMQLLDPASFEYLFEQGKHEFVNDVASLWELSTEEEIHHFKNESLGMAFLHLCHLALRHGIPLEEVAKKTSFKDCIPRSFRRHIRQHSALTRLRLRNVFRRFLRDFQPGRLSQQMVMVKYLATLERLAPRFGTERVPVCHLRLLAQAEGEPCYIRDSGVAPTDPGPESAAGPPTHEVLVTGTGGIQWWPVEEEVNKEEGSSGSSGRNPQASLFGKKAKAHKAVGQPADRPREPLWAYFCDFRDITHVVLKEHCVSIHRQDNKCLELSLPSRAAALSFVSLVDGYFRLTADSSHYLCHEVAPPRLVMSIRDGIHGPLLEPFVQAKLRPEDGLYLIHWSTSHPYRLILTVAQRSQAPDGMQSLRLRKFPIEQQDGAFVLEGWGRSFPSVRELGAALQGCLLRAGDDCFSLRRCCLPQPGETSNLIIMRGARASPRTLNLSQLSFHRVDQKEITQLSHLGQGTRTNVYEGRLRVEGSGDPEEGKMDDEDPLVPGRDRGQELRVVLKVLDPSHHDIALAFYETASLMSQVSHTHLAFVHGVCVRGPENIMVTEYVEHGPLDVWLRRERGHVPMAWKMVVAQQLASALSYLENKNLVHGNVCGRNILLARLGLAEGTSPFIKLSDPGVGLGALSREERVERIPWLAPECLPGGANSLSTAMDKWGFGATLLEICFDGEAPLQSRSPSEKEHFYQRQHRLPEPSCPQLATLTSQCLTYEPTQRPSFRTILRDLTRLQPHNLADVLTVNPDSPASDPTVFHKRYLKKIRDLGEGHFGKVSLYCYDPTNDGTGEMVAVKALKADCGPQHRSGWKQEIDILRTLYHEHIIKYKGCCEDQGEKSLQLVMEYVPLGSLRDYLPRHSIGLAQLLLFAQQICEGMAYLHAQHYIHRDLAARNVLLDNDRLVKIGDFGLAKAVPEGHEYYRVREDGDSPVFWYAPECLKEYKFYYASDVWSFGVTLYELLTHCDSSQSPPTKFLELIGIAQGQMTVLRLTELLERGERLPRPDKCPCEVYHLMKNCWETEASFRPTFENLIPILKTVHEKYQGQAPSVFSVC

Question: With `CN(C(=O)CN1CCOCC1)c1ccc2sc3c(-c4cccc5c(=O)cc(N6CC7CCC(C6)O7)oc45)cccc3c2c1` [NU5455] as the compound, how does the inhibition at 1 µM read?
Answer: The inhibition at 1 µM was 4.2%.
